Measured values published in US6958141B2, “Rhenium and technetium complexes containing a hypoxia-localizing moiety” (Bracco International B.V., priority 1991, dated 2005).

Tests used:
[1] = system: Bovine brain microvessel endothelial cells; assay: Ability to cross endothelial monolayers (permeability index); format: in vitro ADME; settings: permeability index from PSe, endothelial monolayer, compared with ^3H-water and ^14C-sucrose, first 10 minutes, 37° C.
Method: The model consists of a cultured monolayer of bovine brain endothelial cells, which form tight intercellular junctions. […] The rate of transit is compared with ^3H2O (a highly permeable tracer) and ^14C-sucrose (a non-permeable tracer).
Bovine brain microvessel endothelial cells were isolated using a modification of the Audus-Borchardt method (K. L. Audus et al., Ann. New York Acad. Sci., 1988; 9-18). […]
This system was placed into a 37° C., 5% CO2 incubator which contains an orbiting tissue culture plate shaker for agitation and 10 μL samples, from both inside (donor) and outside (acceptor) compartments, were taken simultaneously from a set of 4 Anocell inserts. These samples were counted first in a Gamma counter then, after 72 hours, in a scintillation counter with dual channel capabilities. The fraction of radioactivity transported from the donor to the acceptor wells at each time point over the first 10 minutes of the study was calculated. The average percent of radioactivity transported was plotted vs. time and the slope was estimated by linear regression analysis. […] The permeability index (Pi) is calculated using the PSe for each agent as follows: [formula]

[2] = Biodistribution of ^99mTc-complexes in normal (normoxic) Sprague-Dawley rats; format: in vivo; settings: MEAN n=4
Method: Twelve Sprague-Dawley rats were anesthetized with Nembutal (50 mg/kg) and injected with 0.1 mL (20 μCi) of radioactivity via the jugular vein. At 1 minute, 5 minutes and 60 minutes after administration of the radiotracers (n=4 for all time points), the animals were sacrificed by exsanguination, and the target tissues removed, weighed and assayed for radioactivity. The rats were allowed to respire room air throughout the course of the study.

hypoxic border zone = assay: Rat focal cerebral ischemia model (MCA occlusion), double-label autoradiography; format: in vivo, spontaneously hypertensive rats (SHR); settings: SHR, injected 1 hour or five days after MCA occlusion, both time points
Method: A model of focal cerebral ischemia involving tandem occlusion of the internal carotid artery and the ipsilateral middle cerebral artery (MCA) in spontaneously hypertensive rats (SHR) was characterized using the double-label autoradiography procedure described in Example 10. […] Following surgery, which was performed under Halothane anesthesia, the rats were allowed to recover and one hour after the MCA occlusion, ^14C-deoxyglucose was injected as an IV bolus and timed arterial samples were obtained. Twenty-five minutes after ^14C-deoxyglucose injection, ^99mTcCl(DMG)32MP was injected as an IV bolus and the rat was sacrificed 15 seconds later. The brain was rapidly removed and sections and autoradiograms were obtained as described in Example 10. As found in Example 10 for the rabbit LAD occlusion model, the ischemic territory was bordered by a rim of tissue in which glycolysis was elevated. […] Nevertheless, it was clear that the ischemic region is surrounded by a border zone of increased glycolysis. In a second series of experiments, the ^99mTc complex of the ligand described in Example 1 and ^14C-deoxyglucose were co-injected 1 hour or five days after MCA occlusion.

Mitochondria = assay: Studies in isolated mitochondria; design: species or system male Sprague Dawley rats; settings: 37° C. for 60 minutes, means ±S.E.M.
Method: Mitochondria were prepared from hearts of male Sprague Dawley rats (200 g) using the isolation procedure of Fuller et al., (E. O. Fuller, D. I. Golderg, J. W. Starnes, M. Sacks, and M. J. Delavoria-Papadopoulos, Mol. Cell. Cardiol., 17:71, 1985). The heart was excised from anesthetized rats and trimmed free of the atria and great vessels. The ventricles were minced in ice-cold isolation medium (0.225 M mannitol, 75 mM sucrose, 1.0 mM EGTA and 10 mM MOPS, pH 7.4), briefly exposed to the proteolytic enzyme preparation, Nagase (Enzyme Development Corp., New York, N.Y.), and homogenized with a polytron. The mitochondria were separated from the remainder of the broken cells using density gradient centrifugation.
Three nitroimidazole compounds were incubated at 37° C. for 60 minutes in isolated mitochodria. Hypoxia and anoxia were induced as outlined in Example 12.
Values are given in percent of total radioactivity within an aliquot and represent means ±S.E.M. Compounds were tested using the same preparation of mitochondria.

[3] = 1 Min. after jugular vein injection
[4] = 5 Min. after jugular vein injection
[5] = 60 Min. after jugular vein injection

## [^99mTc]Oxo[[3,3,9,9-tetramethyl-1-(2-nitro-1H-imidazo-1-yl)-4,8-diazaundecane-2,10-dione dioximato]-(3-)-N,N′,N″,N′″]technetium(V) [^99mTc complex from ligand in Ex. 1]
[1]
  Pi: 63.2
[2]; [3]
  Percent ID/g Bladder: 0.15 Percent ID/g
  Percent ID/g Blood: 0.47 Percent ID/g
  Percent ID/g Bone: 0.37 Percent ID/g
  Percent ID/g Brain: 0.30 Percent ID/g
  Percent ID/g Heart: 1.32 Percent ID/g
  Percent ID/g Kidneys: 2.59 Percent ID/g
  Percent ID/g Liver: 2.06 Percent ID/g
  Percent ID/g Lower Intestine: 0.50 Percent ID/g
  Percent ID/g Lungs: 0.71 Percent ID/g
  Percent ID/g Muscle: 0.25 Percent ID/g
  Percent ID/g Spleen: 0.84 Percent ID/g
  Percent ID/g Stomach: 0.67 Percent ID/g
  Percent ID/g Thymus: 0.55 Percent ID/g
  Percent ID/g Thyroid: 0.65 Percent ID/g
  Percent ID/g Upper Intestine: 1.13 Percent ID/g
[2]; [4]
  Percent ID/g Bladder: 0.68 Percent ID/g
  Percent ID/g Blood: 0.36 Percent ID/g
  Percent ID/g Bone: 0.23 Percent ID/g
  Percent ID/g Brain: 0.11 Percent ID/g
  Percent ID/g Heart: 0.34 Percent ID/g
  Percent ID/g Kidneys: 1.15 Percent ID/g
  Percent ID/g Liver: 3.63 Percent ID/g
  Percent ID/g Lower Intestine: 0.40 Percent ID/g
  Percent ID/g Lungs: 0.39 Percent ID/g
  Percent ID/g Muscle: 0.14 Percent ID/g
  Percent ID/g Spleen: 0.45 Percent ID/g
  Percent ID/g Stomach: 0.56 Percent ID/g
  Percent ID/g Thymus: 0.25 Percent ID/g
  Percent ID/g Thyroid: 0.77 Percent ID/g
  Percent ID/g Upper Intestine: 0.98 Percent ID/g
[2]; [5]
  Percent ID/g Bladder: 2.84 Percent ID/g
  Percent ID/g Blood: 0.28 Percent ID/g
  Percent ID/g Bone: 0.11 Percent ID/g
  Percent ID/g Brain: 0.02 Percent ID/g
  Percent ID/g Heart: 0.09 Percent ID/g
  Percent ID/g Kidneys: 0.45 Percent ID/g
  Percent ID/g Liver: 2.45 Percent ID/g
  Percent ID/g Lower Intestine: 0.36 Percent ID/g
  Percent ID/g Lungs: 0.16 Percent ID/g
  Percent ID/g Muscle: 0.05 Percent ID/g
  Percent ID/g Spleen: 0.23 Percent ID/g
  Percent ID/g Stomach: 1.80 Percent ID/g
  Percent ID/g Thymus: 0.05 Percent ID/g
  Percent ID/g Thyroid: 0.15 Percent ID/g
  Percent ID/g Upper Intestine: 4.60 Percent ID/g
Hypoxic border zone
  uptake in brain autoradiograms: increased uptake in the hypoxic border zone relative to surrounding normoxic tissue
Mitochondria
  percentage of radioactivity associated with the mitochondria, Hypoxia: 39.2 ± 1.0% of total radioactivity within an aliquot
  percentage of radioactivity associated with the mitochondria, Normoxia: 27.8 ± 1.2% of total radioactivity within an aliquot
Mitochondria; radioactivity associated with mitochondria
  Hypoxia/normoxia: 1.4 ± 0.1
